Results reported in the RepoRT retention time repository (doi:10.1016/j.chroma.2012.03.059).

Assay: RP, Agilent ZORBAX Eclipse XDB-C8, 150 × 4.6 mm, 3.5 µm, 25 °C, 0.6 mL/min, estimated dead time 2.6 min; A: water + 0.1% formic acid; B: acetonitrile + 0.1% formic acid; gradient (min/%B) 0/10 5/10 30/100
Details: stereoisomer not certain

SMILES | LC retention time [min]
Cc1cccc(Nc2ccccc2C(=O)O)c1C | 24.6
CCC1OC(=O)C(C)C(OC2CC(C)(OC)C(O)C(C)O2)C(C)C(OC2OC(C)CC(N(C)C)C2O)C(C)(O)CC(C)C(=NOCOCCOC)C(C)C(O)C1(C)O (stereo unspecified) | 16.2
NC(=O)N1c2ccccc2C(O)C(O)c2ccccc21 (stereo unspecified) | 12.9
COc1ccc2c3c1OC1C(=O)CCC4(O)C(C2)N(C)CCC314 (stereo unspecified) | 9.4
CN1CCC23CCCCC2C1Cc1ccc(O)cc13 (stereo unspecified) | 12.1
COc1ccc2c3c1OC1C(O)C=CC4C(C2)N(C)CCC341 (stereo unspecified) | 7
CC12CCC(O)CC1CCC1C2CC(O)C2(C)C(C3=CC(=O)OC3)CCC12O (stereo unspecified) | 13.4
Cc1nnc(NS(=O)(=O)c2ccc(N)cc2)s1 | 12.7
CCC(=O)C(CC(C)N(C)C)(c1ccccc1)c1ccccc1 (stereo unspecified) | 16.6
Nc1ccc(S(=O)(=O)Nc2ncccn2)cc1 | 9.9
CN1C(=O)CCC1c1cccnc1 (stereo unspecified) | 3.2
COc1ccc2c3c1OC1C(=O)CCC4C(C2)N(C)CCC314 (stereo unspecified) | 10.1
Cc1onc(-c2ccccc2)c1C(=O)NC1C(=O)N2C1SC(C)(C)C2C(=O)O (stereo unspecified) | 19.2
CCCC(C)(COC(N)=O)COC(N)=O | 14.7
CN=C(NC#N)NCCSCc1nc[nH]c1C | 4.3
O=C1NC(=O)C(c2ccccc2)(c2ccccc2)N1 | 17.1
COc1ccc(C(CN(C)C)C2(O)CCCCC2)cc1 (stereo unspecified) | 13.5
COc1cccc(C2(O)CCCCC2CN(C)C)c1 (stereo unspecified) | 11.1
CCC1OC(=O)C(C)C(OC2CC(C)(OC)C(O)C(C)O2)C(C)C(OC2OC(C)CC(N(C)C)C2O)C(C)(O)CC(C)CN(C)C(C)C(O)C1(C)O (stereo unspecified) | 12.2
CC1(C)SC2C(NC(=O)COc3ccccc3)C(=O)N2C1C(=O)O (stereo unspecified) | 17.9
COc1ccc2cc(C(C)C(=O)O)ccc2c1 (stereo unspecified) | 20.9
CCn1cc(C(=O)O)c(=O)c2cc3c(cc21)OCO3 | 15.4
NCC1(CC(=O)O)CCCCC1 | 6.5
CC1OC(OC2C(O)CC(OC3C(O)CC(OC4CCC5(C)C(CCC6C5CC(O)C5(C)C(C7=CC(=O)OC7)CCC65O)C4)OC3C)OC2C)CC(O)C1O (stereo unspecified) | 15.2
CON=C(C(=O)NC1C(=O)N2C(C(=O)O)=C(COC(C)=O)CSC12)c1csc(N)n1 (stereo unspecified) | 12.9
COc1ccc2c(c1)C13CCCCC1C(C2)N(C)CC3 (stereo unspecified) | 14.6
CCC(C)(C)C(=O)OC1CC(C)C=C2C=CC(C)C(CCC3CC(O)CC(=O)O3)C21 (stereo unspecified) | 26.9
CCC1OC(=O)C(C)C(OC2CC(C)(OC)C(O)C(C)O2)C(C)C(OC2OC(C)CC(N(C)C)C2O)C(C)(O)CC(C)C(=O)C(C)C(O)C1(C)O (stereo unspecified) | 14.6
O=C(c1ccccc1)c1ccc2n1CCC2C(=O)O (stereo unspecified) | 19.7

The remaining lines, values ahead:

LC retention time [min] | SMILES
17.1 | NC(=O)N1c2ccccc2CCc2ccccc21
4.6 | CNC(=C[N+](=O)[O-])NCCSCc1ccc(CN(C)C)o1
15.1 | CN(C)CCOC(c1ccccc1)c1ccccc1
6.3 | Cn1c(=O)[nH]c2ncn(C)c2c1=O
17.2 | NC(=O)N1c2ccccc2C=Cc2ccccc21
21.4 | CC(=O)CC(c1ccccc1)c1c(O)c2ccccc2oc1=O (stereo unspecified)
16.5 | COc1cc(NS(=O)(=O)c2ccc(N)cc2)nc(OC)n1
10.6 | Nc1ccc(S(=O)(=O)Nc2nccs2)cc1
10.4 | CC1(C)SC2C(NC(=O)C(N)c3ccccc3)C(=O)N2C1C(=O)O (stereo unspecified)
25 | Cc1ccc(C)c(OCCCC(C)(C)C(=O)O)c1
15.8 | NC(=O)N1c2ccccc2CC(=O)c2ccccc21
15.3 | Cc1cc(NS(=O)(=O)c2ccc(N)cc2)no1
4 | CC(C)(C)NCC(O)c1ccc(O)c(CO)c1 (stereo unspecified)
4.6 | Nc1ccc(S(N)(=O)=O)cc1
19 | CC(C(=O)O)c1cccc(C(=O)c2ccccc2)c1 (stereo unspecified)
8.8 | c1ccc2[nH]c(-c3cscn3)nc2c1
20.5 | COC(=O)c1c(C)nc(C)c(C(=O)OC)c1-c1ccccc1[N+](=O)[O-]
12.7 | CCC1(c2ccccc2)C(=O)NCNC1=O
15 | CCC1OC(=O)CC(O)C(C)C(OC2OC(C)C(OC3CC(C)(O)C(O)C(C)O3)C(N(C)C)C2O)C(CC=O)CC(C)C(=O)C=CC(C)=CC1COC1OC(C)C(O)C(OC)C1OC (stereo unspecified)

LC retention time [min] | SMILES
4.2 | CC(C)NCC(O)COc1ccc(CC(N)=O)cc1 (stereo unspecified)
16 | CCC1OC(=O)C(C)C(OC2CC(C)(OC)C(O)C(C)O2)C(C)C(OC2OC(C)CC(N(C)C)C2O)C(C)(OC)CC(C)C(=O)C(C)C(O)C1(C)O (stereo unspecified)
12.4 | Cc1cc(C)nc(NS(=O)(=O)c2ccc(N)cc2)n1
12.7 | COc1ccccc1OCC(O)CO (stereo unspecified)
9.8 | Cn1c(=O)c2c(ncn2C)n(C)c1=O
8.7 | CCCC1CC(C(=O)NC(C(C)O)C2OC(SC)C(O)C(O)C2O)N(C)C1 (stereo unspecified)
13.9 | NC(=O)N1c2ccccc2CC(O)c2ccccc21 (stereo unspecified)
12.1 | COCCc1ccc(OCC(O)CNC(C)C)cc1 (stereo unspecified)
10.4 | COc1cc(Cc2cnc(N)nc2N)cc(OC)c1OC
14.4 | CC(C)NCC(O)COc1cccc2ccccc12 (stereo unspecified)
11.3 | CN(C)CC(c1ccc(O)cc1)C1(O)CCCCC1 (stereo unspecified)
6.5 | CC(=O)Nc1ccc(O)cc1
16.9 | CC1(C)SC2C(NC(=O)Cc3ccccc3)C(=O)N2C1C(=O)O (stereo unspecified)
9.4 | CC(C)NCC(O)COc1ccc(CC(=O)O)cc1 (stereo unspecified)
18.4 | CC1=CC(O)CC(=O)Cc2nc(co2)C(=O)N2CCC=C2C(=O)OC(C(C)C)C(C)C=CC(=O)NCC=C1.CCC1NC(=O)C(NC(=O)c2ncccc2O)C(C)OC(=O)C(c2ccccc2)NC(=O)C2CC(=O)CCN2C(=O)C(Cc2ccccc2)N(C)C(=O)C2CCCN2C1=O (stereo unspecified)
15.2 | COc1ccc(C2Sc3ccccc3N(CCN(C)C)C(=O)C2OC(C)=O)cc1 (stereo unspecified)
11.5 | Cc1ccnc(NS(=O)(=O)c2ccc(N)cc2)n1
23.6 | CC(C)Cc1ccc(C(C)C(=O)O)cc1 (stereo unspecified)
